Test results: the NIST ThermoML archive (doi:10.1021/je049787p)

Conditions: 101.3 kPa, Liquid; for electrical conductivity: Alternating current cell with electrodes

C=CCn1cc[n+](C)c1.[Cl-] [1-allyl-3-methylimidazolium chloride]
Conditions | electrical conductivity [S/m] | viscosity [mPa·s]
293.15 K | 0.00382 | 66
303.15 K | 0.0044 | 44.7
313.15 K | 0.00501 | 25.3
323.15 K | 0.00562 | 20.6
333.15 K | 0.00624 | 16.2
